These results are taken from patent US11576911B2, “Composition and method for treatment of depression and psychosis in humans” (Glytech LLC, priority 2012, dated 2023).

For assay [1], the system named is Male C57Bl/6J mice. The assay can be described thus: Elevated plus maze (EPM), DOI 2 mg/kg in all conditions. In kind it is in vivo. The following applies: for Reversal of 5-HT2A antagonist induced reductions in open arm measures of the EPM, in words: NMDAR antagonists, summary of Example 1; for Effect on open arm behavior in the EPM, in words: non-competitive NMDAR antagonist with MDL100907 .3 mg/kg (Table 1 lines 8,9); for Total distance travelled in the EPM, in words: with MDL100907 .3 mg/kg (Table 1 lines 8,9); for Mean distance travelled in the open arm of the EPM: Table 6, DOI 2 mg/kg added; for Distance travelled in the open arm relative to the vehicle, in words: Table 6 doses, DOI 2 mg/kg added in all conditions; for Distance Traveled Open (DTO) Mean / Percent open (PCT) Mean: Table 1; for Effect on distance travelled in open arm / % time in open arm of EPM, in words: agent alone vs control, doses of Tables 1 and 2; for DTO Mean / PCT Mean: Table 2.

For assay [2], the system named is Male C57Bl/6J mice. The conditions noted are these: selective 5-HT2A antagonist alone; previously demonstrated (U.S. Pat. No. 9,846,453); cited from earlier work.
For another assay, the system named is Male BalbC/J mice. The assay can be described thus: Rodent forced swim test (FST), immobility time. In kind it is in vivo. More on the design: key to Mean immobility time in the rodent forced swim test (FST): seconds of immobility over the 6-min test. The following applies: for Mean immobility time in the rodent forced swim test (FST): Table 5. The text has this:
Male BalbC/J mice (8 weeks old) from Jackson Laboratories (Bar Harbor, Me.) were used. Upon receipt, mice were assigned unique identification numbers (tail marked) and were group housed in OPTImice cages. All animals were acclimated to the colony room for 1 week prior to testing. During the period of acclimation, animals were examined on a regular basis, handled, and weighed to assure adequate health and suitability. Animals were maintained on a 12/12 light/dark cycle. The room temperature was maintained between 20 and 23° C. with a relative humidity maintained between 30% and 70%. Chow and water were provided ad libitum for the duration of the study. All testing was performed during the animal's light cycle phase.
Mice were acclimated to the test room at least 1 hour prior to commencing the test. The forced swimming test consisted of one 6-minute session of forced swimming in individual opaque cylinders (15 cm tall×10 cm wide, 1000 ml beakers) containing fresh tap water at a temperature of 23±2° C. and a depth of 12 cm (approximately 800 ml) for each test animal. The time the animal spent immobile was recorded over the 6 min trial. Every 1 min the cumulative immobility time was recorded from the start of the session and noted on the study data record sheet. Immobility was defined as the postural position of floating in the water. The animals were generally observed with the back slightly hunched and the head above water with no movements or with small stabilizing movements of the limbs. After the swim test, each animal was placed in a pre-heated cage with a heating pad and allowed to dry.
The main variable used to represent immobility in this test was the total time immobile during the 6-min test period. Statistics were performed by analysis of variance (ANOVA) with Dunnett post-hoc testing vs. the control condition or by t-test as appropriate.
Sertraline, a known antidepressant, is used as a positive control.
For this study, further NMDAR antagonist compounds were tested for their ability to reduce immobility time in the rodent FST test, indicative of potential anti-depressant effects, and further 5-HT2AR antagonists were tested for their ability to produce reductions of time spent in the open arms of the EPM, indicative to potential liability to induce anxiety, akathisia and suicidality in humans

In the case of `c1ccc(C2(N3CCCCC3)CCCCC2)cc1` [PCP], in the assay with Male C57Bl/6J mice [1], the “Reversal of 5-HT2A antagonist induced reductions in open arm measures of the EPM, in words” value was “worsened performance relative to DCS”; the “Effect on open arm behavior in the EPM, in words” value is listed as “did not significantly affect open arm behavior”; the “Total distance travelled in the EPM, in words” value is “reduced total distance travelled”.
Regarding `Cc1ccc(Sc2ccccc2N2CCNCC2)c(C)c1` [Vortioxetine], the “Mean distance travelled in the open arm of the EPM” value (“Mean distance travelled” below) with Male C57Bl/6J mice [1] (10 mg/kg) was 237.90. The “Distance travelled in the open arm relative to the vehicle, in words” value with Male C57Bl/6J mice [1] is listed as “no significant effects”.
For the compound `CC(C)COc1ccc(CNC(=O)N(Cc2ccc(F)cc2)C2CCN(C)CC2)cc1` [Pimavanserin], the “Mean distance travelled” value came to 150.20 in the assay with Male C57Bl/6J mice [1] (0.3 mg/kg), 204.10 in the assay with Male C57Bl/6J mice [1] (1 mg/kg) and 66.50 in the assay on Male C57Bl/6J mice [1] (10 mg/kg). Besides, the “Distance travelled in the open arm relative to the vehicle, in words” value in the assay on Male C57Bl/6J mice [1] was “significantly reduced”.
Regarding `CNCCC(Oc1ccc(C(F)(F)F)cc1)c1ccccc1` (stereo not drawn) [Fluoxetine], the “Mean distance travelled” value with Male C57Bl/6J mice [1] (10 mg/kg) is listed as 216.70. For the same compound, the “Distance travelled in the open arm relative to the vehicle, in words” value in the assay on Male C57Bl/6J mice [1] was “no significant effects”.
Consider `COc1cccc([C@H](O)C2CCN(CCc3ccc(F)cc3)CC2)c1OC` [MDL100907], for which the “Distance travelled in the open arm and % time in the open arm, in words” value in the assay with Male C57Bl/6J mice [2] is listed as “significantly reduced”. In addition, in the assay with Male C57Bl/6J mice [1] (.3 mg/kg alone), the “Distance Traveled Open (DTO) Mean” value amounted to 114.3 and the “Percent open (PCT) Mean” value is 19.2%. Further, the “Effect on distance travelled in open arm / % time in open arm of EPM, in words” value in the assay on Male C57Bl/6J mice [1] is “significantly reduces both distance travelled in the open arm and % open arm activity”.
Regarding `CNC1(c2ccccc2Cl)CCCCC1=O` (racemic) [ketamine, (R,S)-2-(2-Chlorphenyl)-2-(methylamino)cyclohexan-1-on], in the assay on Male C57Bl/6J mice [1] (10 mg/kg ip alone), the “Distance Traveled Open (DTO) Mean” value is 194.5 and the “Percent open (PCT) Mean” value was 40.3%. Also, in the assay on Male C57Bl/6J mice [1], the “Effect on distance travelled in open arm / % time in open arm of EPM, in words” value is “does not significantly alter either distance traveled in the open arm or % time in the open arm”; the “Effect on open arm behavior in the EPM, in words” value was “did not significantly affect open arm behavior”; the “Total distance travelled in the EPM, in words” value is “reduced total distance travelled”.
Consider `Cc1nc2n(c(=O)c1CCN1CCC(c3noc4cc(F)ccc34)CC1)CCCC2` [Risperidone], for which, in the assay on Male C57Bl/6J mice [1] (1 mg/kg alone), the “DTO Mean” value is 0.0 and the “PCT Mean” value amounted to 0.0%. Besides, in the assay on Male C57Bl/6J mice [1] (1 mg/kg), the “Mean distance travelled” value is 5.30.
On to `O=C(c1ccc(F)cc1)C1CCN(CCn2c(=O)[nH]c3ccccc3c2=O)CC1` [ketanserin], for which the “Distance travelled in the open arm and % time in the open arm, in words” value in the assay on Male C57Bl/6J mice [2] is “significantly reduced”.
Turning to `COc1ccc(C(CN(C)C)C2(O)CCCCC2)cc1` (stereo not drawn) [Venflaxine], the “Mean distance travelled” value in the assay on Male C57Bl/6J mice [1] (40 mg/kg) is 224.60.
As to `OCCOCCN1CCN(C2=Nc3ccccc3Sc3ccccc32)CC1` [Quetiapine], in the assay on Male C57Bl/6J mice [1] (30 mg/kg alone), the “DTO Mean” value was found to be 42.8 and the “PCT Mean” value is 9.0%.
In the case of `O=C(O)[C@H]1C[C@@H](CP(=O)(O)O)CCN1` (relative stereo) [CGS-19755, cis-4-(phosphonomethyl)-2-piperidinecarboxylic acid], the “Mean immobility time in the rodent forced swim test (FST)” value stood at 125.60 in the assay with Male BalbC/J mice (0.03 mg/kg); 144.30 with Male BalbC/J mice (0.1 mg/kg); 120.00 with Male BalbC/J mice (0.3 mg/kg); 137.20 in the assay with Male BalbC/J mice (1.0 mg/kg); 154.90 in the assay with Male BalbC/J mice (3.0 mg/kg); 114.70 in the assay on Male BalbC/J mice (10 mg/kg). The “Effect on immobility in the FST, in words” value in the assay on Male BalbC/J mice (at indicated doses of Table 5) is “numerically reduce immobility”. Also, the “Reversal of 5-HT2A antagonist induced reductions in open arm measures of the EPM, in words” value with Male C57Bl/6J mice [1] was “Pro-therapeutic effects”.
For the compound `O=C(O)[C@H]1CN(C/C=C/P(=O)(O)O)CCN1` [D-CPPene, D-(E)-4-(3-phosphonoprop-2-enyl)piperazine-2-carboxylic acid], the “Mean immobility time in the rodent forced swim test (FST)” value with Male BalbC/J mice (0.03 mg/kg) was 124.20; in the assay on Male BalbC/J mice (0.1 mg/kg) it was 153.40; in the assay on Male BalbC/J mice (0.3 mg/kg), 129.10; in the assay on Male BalbC/J mice (1.0 mg/kg), 156.80; in the assay on Male BalbC/J mice (3.0 mg/kg), 124.60; with Male BalbC/J mice (10 mg/kg), 141.20. The “Reversal of 5-HT2A antagonist induced reductions in open arm measures of the EPM, in words” value in the assay on Male C57Bl/6J mice [1] is on record as “Pro-therapeutic effects”.
